Test results taken from US6706664B1, “Benzoxazole compounds, process for the preparation thereof and herbicides” (UBE Industries, Ltd., priority 1999, dated 2004).

Legend:
Design in all cases: key: 0: normal development; 1: Less damaged; 2: Slightly damaged; 3: Moderately damaged; 4: Severely damaged; 5: All killed
barnyardgrass [1] = assay: Soil treatment test for upland field; format: in vivo, Echinochloa crusgalli; settings: 500 g/ha, glass house 25° C., 3 weeks
How it was run: (§1)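 Pre-emergence test: seeds sown in Ube alluvial soil in Wagner pots, soil surface sprayed with wettable powder in water with 0.05% surfactant at 500 g/ha. Plants kept in a glasshouse at average 25 °C for 3 weeks, then damage scored 0 (normal) to 5 (all killed).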

livid amaranth [2] = assay: Foliar spread test for upland field; format: in vivo, Amaranthus lividus; settings: foliar spray 500 ppm, 3 weeks, rank vs non-treated
How it was run: (§2)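 Post-emergence foliar spray, 500 ppm (wettable powder in water + 0.5% surfactant), on ~2-week-old plants grown in volcanic ash soil; glasshouse, avg 25° C, 3 wk; visual damage score 0–5.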

green foxtail [3] = assay: Soil treatment test for upland field; format: in vivo, Setaria viridis; settings: 500 g/ha, glass house 25° C., 3 weeks
How it was run: as §1

annual bluegrass [4] = assay: Foliar spread test for upland field; format: in vivo, Poa annua; settings: foliar spray 500 ppm, 3 weeks, rank vs non-treated
Description: (§3) (0: normal development, 1: Less damaged, 2: Slightly damaged, 3: Moderately damaged, 4: Severely damaged, 5: All killed).
(§4) Wagner pots, each having an area of 1/5000 are, were packed with volcanic ash soil and then each seed of corn, soybean, cotton, wheat, solgum, sugar beat, Large crabgrass, barnyardgrass, green foxtail, blackgrass, annual bluegrass, common lambsquartes, livid amaranth, velvetleaf and morning glory was planted, covered with soil and grown in a glass house at an average temperature of […] for about 2 weeks.
(§5) Each wettable powder of the desired compounds (I) shown in Table 1 prepared in accordance with Example 2 was diluted to 500 ppm with water containing a surfactant (0.5%) and then uniformly sprayed on the above respective plants.
(§6) After these plants were controlled in a glass house at an average temperature of 25° C. for 3 weeks, the herbicidal effects thereof were investigated.
(§7) The herbicidal effects were evaluated according to the evaluation method described in the above (1).

sugar beat [5] = assay: Soil treatment test for upland field; format: in vivo; settings: 500 g/ha, glass house 25° C., 3 weeks
How it was run: as §1

wheat [6] = assay: Soil treatment test for upland field; format: in vivo; settings: 500 g/ha, glass house 25° C., 3 weeks
How it was run: as §1

corn [7] = assay: Soil treatment test for upland field; format: in vivo; settings: 500 g/ha, glass house 25° C., 3 weeks
How it was run: as §1

soybean [8] = assay: Soil treatment test for upland field; format: in vivo; settings: 500 g/ha, glass house 25° C., 3 weeks
How it was run: as §1

solgum [9] = assay: Soil treatment test for upland field; format: in vivo; settings: 500 g/ha, glass house 25° C., 3 weeks
How it was run: as §1

velvetleaf [10] = assay: Foliar spread test for upland field; format: in vivo, Abutilon theophrasti; settings: foliar spray 500 ppm, 3 weeks, rank vs non-treated
How it was run: as §2

livid amaranth [11] = assay: Soil treatment test for upland field; format: in vivo, Amaranthus lividus; settings: 500 g/ha, glass house 25° C., 3 weeks
How it was run: as §1

common lambsquartes [12] = assay: Foliar spread test for upland field; format: in vivo, Chenopodium album; settings: foliar spray 500 ppm, 3 weeks, rank vs non-treated
How it was run: as §2

Large crabgrass [13] = assay: Soil treatment test for upland field; format: in vivo, Digitaria adscendens; settings: 500 g/ha, glass house 25° C., 3 weeks
How it was run: as §1

sugar beat [14] = assay: Foliar spread test for upland field; format: in vivo; settings: foliar spray 500 ppm, 3 weeks, rank vs non-treated
How it was run: (§8)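 Two-week-old glasshouse seedlings on volcanic ash soil were treated by foliar spray at 500 ppm, with 0.5% surfactant in the diluent. Effects were graded visually after three weeks, from 0 for no injury to 5 for complete kill.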

wheat [15] = assay: Foliar spread test for upland field; format: in vivo; settings: foliar spray 500 ppm, 3 weeks, rank vs non-treated
How it was run: as §8

cotton [16] = assay: Foliar spread test for upland field; format: in vivo; settings: foliar spray 500 ppm, 3 weeks, rank vs non-treated
How it was run: as §8

corn [17] = assay: Foliar spread test for upland field; format: in vivo; settings: foliar spray 500 ppm, 3 weeks, rank vs non-treated
How it was run: as §8

soybean [18] = assay: Foliar spread test for upland field; format: in vivo; settings: foliar spray 500 ppm, 3 weeks, rank vs non-treated
How it was run: as §8

solgum [19] = assay: Foliar spread test for upland field; format: in vivo; settings: foliar spray 500 ppm, 3 weeks, rank vs non-treated
How it was run: as §8

green foxtail [20] = assay: Foliar spread test for upland field; format: in vivo, Setaria viridis; settings: foliar spray 500 ppm, 3 weeks, rank vs non-treated
Description: as §3, §4, §5, §6, §7

common lambsquartes [21] = assay: Soil treatment test for upland field; format: in vivo, Chenopodium album; settings: 500 g/ha, glass house 25° C., 3 weeks
How it was run: as §1

morning glory = assay: Foliar spread test for upland field; format: in vivo, Ipomoea spps.; settings: foliar spray 500 ppm, 3 weeks, rank vs non-treated
Description: as §3, §4, §5, §6, §7

Large crabgrass [22] = assay: Foliar spread test for upland field; format: in vivo, Digitaria adscendens; settings: foliar spray 500 ppm, 3 weeks, rank vs non-treated
Description: as §3, §4, §5, §6, §7

annual bluegrass [23] = assay: Soil treatment test for upland field; format: in vivo, Poa annua; settings: 500 g/ha, glass house 25° C., 3 weeks
How it was run: as §1

blackgrass [24] = assay: Foliar spread test for upland field; format: in vivo, Alopecurus aegualis; settings: foliar spray 500 ppm, 3 weeks, rank vs non-treated
Description: as §3, §4, §5, §6, §7

cotton [25] = assay: Soil treatment test for upland field; format: in vivo; settings: 500 g/ha, glass house 25° C., 3 weeks
How it was run: as §1

blackgrass [26] = assay: Soil treatment test for upland field; format: in vivo, Alopecurus aegualis; settings: 500 g/ha, glass house 25° C., 3 weeks
How it was run: as §1

velvetleaf [27] = assay: Soil treatment test for upland field; format: in vivo, Abutilon theophrasti; settings: 500 g/ha, glass house 25° C., 3 weeks
How it was run: as §1

barnyardgrass [28] = assay: Foliar spread test for upland field; format: in vivo, Echinochloa crusgalli; settings: foliar spray 500 ppm, 3 weeks, rank vs non-treated
Description: as §3, §4, §5, §6, §7

Compound | Effects Barnyardgrass (barnyardgrass [1]) | Effects Livid amaranth (livid amaranth [2]) | Effects Green foxtail (green foxtail [3]) | Effects Annual bluegrass (annual bluegrass [4]) | Effects Sugar beat (sugar beat [5]) | Effects Wheat (wheat [6]) | Effects Soybean (soybean [8]) | Effects Solgum (solgum [9]) | Effects Velvetleaf (velvetleaf [10]) | Effects Livid amaranth (livid amaranth [11]) | Effects Common lambsquarters (common lambsquartes [12]) | Effects Large crabgrass (Large crabgrass [13]) | Effects Sugar beat (sugar beat [14]) | Effects Wheat (wheat [15]) | Effects Cotton (cotton [16]) | Effects Corn (corn [17]) | Effects Solgum (solgum [19]) | Effects Green foxtail (green foxtail [20]) | Effects Large crabgrass (Large crabgrass [22]) | Effects Blackgrass (blackgrass [24]) | other results
CC(Oc1cccc(C(F)(F)F)c1)c1nc2ccc(C(F)(F)F)cc2o1 (stereo not drawn) [Compound 86] | 3 | 3 | 4 | 1 | 2 | 0 | 0 | 0 | 1 | 5 | 2 | 5 | 2 | 1 | 1 | 1 | 0 | 2 | 2 | 1 | Effects Corn (corn [7]): 0; Effects Soybean (soybean [18]): 2; Effects Common lambsquarters (common lambsquartes [21]): 1; Effects Morning glory (morning glory): 3; Effects Annual bluegrass (annual bluegrass [23]): 1
CCC(Oc1cccc(C(F)(F)F)c1)c1nc2cc([N+](=O)[O-])ccc2o1 (stereo not drawn) [Compound 178] | 4 | 4 | 5 | 3 | 1 | 0 | 0 | 0 | 3 | 5 | 4 | 5 | 3 | 2 | 3 | 2 | 2 | 2 | 3 | 2 | Effects Cotton (cotton [25]): 0; Effects Corn (corn [7]): 0; Effects Blackgrass (blackgrass [26]): 3; Effects Velvetleaf (velvetleaf [27]): 1; Effects Soybean (soybean [18]): 3; Effects Common lambsquarters (common lambsquartes [21]): 4; Effects Annual bluegrass (annual bluegrass [23]): 5; Effects Barnyardgrass (barnyardgrass [28]): 2
CCC(Oc1ccc(Cl)c(C(F)(F)F)c1)c1nc2cc(Cl)ccc2o1 (stereo not drawn) [Compound 438] |  | 5 |  | 3 |  |  |  |  | 3 |  | 3 |  | 5 | 2 | 3 | 2 | 2 | 3 | 3 | 2 | Effects Soybean (soybean [18]): 4; Effects Morning glory (morning glory): 4; Effects Barnyardgrass (barnyardgrass [28]): 1
CCC(Oc1cccc(S(C)(=O)=O)c1)c1nc2cc(S(C)(=O)=O)ccc2o1 (stereo not drawn) [Compound 513] | 4 | 5 | 5 | 5 | 5 | 2 | 2 | 2 | 5 | 5 | 5 | 5 | 5 |  |  |  | 3 | 5 | 5 | 5 | Effects Cotton (cotton [25]): 2; Effects Blackgrass (blackgrass [26]): 3; Effects Velvetleaf (velvetleaf [27]): 5; Effects Common lambsquarters (common lambsquartes [21]): 5; Effects Morning glory (morning glory): 3; Effects Annual bluegrass (annual bluegrass [23]): 5; Effects Barnyardgrass (barnyardgrass [28]): 3
CCC(Oc1ccc(F)c(C(F)(F)F)c1)c1nc2cc(NC(=O)C(F)(F)F)ccc2o1 (stereo not drawn) [Compound 518] |  | 2 |  |  |  |  |  |  | 3 |  | 2 |  | 5 | 0 | 0 | 0 | 0 | 5 | 2 | 2 | Effects Soybean (soybean [18]): 0
CCC(Oc1ccc(Cl)c(C(F)(F)F)c1)c1nc2cc(C#N)c(Cl)cc2o1 (stereo not drawn) [Compound 534] | 4 | 5 | 5 | 4 | 5 | 1 | 2 | 1 | 5 | 5 | 4 | 5 | 5 | 2 |  | 2 | 2 |  | 2 | 3 | Effects Corn (corn [7]): 2; Effects Blackgrass (blackgrass [26]): 4; Effects Velvetleaf (velvetleaf [27]): 5; Effects Common lambsquarters (common lambsquartes [21]): 5; Effects Morning glory (morning glory): 5; Effects Annual bluegrass (annual bluegrass [23]): 5; Effects Barnyardgrass (barnyardgrass [28]): 2
